Assay results reported in ChEMBL document CHEMBL1201862, “PubChem BioAssay data set” (2004).
Counter-ions that a name gives are not always drawn. Activity calls are given as the source filed them.

Assays:
[1] = loss of viability in HepG2 cells – cell-based, CellTiter-Glo, cherry-picked, cytotoxicity control for Shn3 inhibitor project, dose response (AID 624134); assay type: functional
[2] = non-specific 3'UTR reporter inhibition in Clone20-Shn3RL – cell-based, Renilla luciferase, cherry-picked, counter-screen for Shn3 inhibitor project, dose response (AID 624133); assay type: functional
[3] = reduction of Shn3 3'UTR-driven luciferase in osteoblasts – cell-based, Clone20 osteoblasts, firefly luciferase, cherry-picked, dose response (AID 624132); assay type: functional;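 also: firefly luciferase luminescence from reporter carrying the Shn3 3'UTR in osteoblasts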
[4] = molecular target: T1, Nuclear receptor subfamily 0 group B member 1 (Homo sapiens, UniProt P51843); assay type: functional, cell-based;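 also: HEK293T cells transfected with SF-1 and DAX-1 plus StAR promoter luciferase reporter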
T1 sequence (P51843 whole entry): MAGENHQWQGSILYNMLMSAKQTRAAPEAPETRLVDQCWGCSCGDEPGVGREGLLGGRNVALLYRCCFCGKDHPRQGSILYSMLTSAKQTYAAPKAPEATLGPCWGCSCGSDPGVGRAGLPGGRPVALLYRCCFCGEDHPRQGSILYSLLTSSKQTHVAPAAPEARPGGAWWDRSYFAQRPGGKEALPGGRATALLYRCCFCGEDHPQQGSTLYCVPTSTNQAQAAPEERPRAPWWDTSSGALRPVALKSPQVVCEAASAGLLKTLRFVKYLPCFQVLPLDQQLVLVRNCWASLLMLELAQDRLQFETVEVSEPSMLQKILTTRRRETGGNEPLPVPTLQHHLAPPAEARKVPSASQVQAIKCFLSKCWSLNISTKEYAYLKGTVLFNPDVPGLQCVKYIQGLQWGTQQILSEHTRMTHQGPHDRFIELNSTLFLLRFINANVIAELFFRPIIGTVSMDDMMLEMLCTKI

[5] = cells; assay type: functional, cell-based
[6] = general mammalian cell viability loss – inhibitor set, cherry-pick, set 2, cytotoxicity control for miR-122 modulator project, dose response (AID 720697); assay type: functional, cell-based
[7] = molecular target: Photoreceptor-specific nuclear receptor (Homo sapiens, UniProt Q9Y5X4); assay type: functional, cell-based;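 also: CHO-S cells with Gal4-NCOR and VP16-NR2E3 two-hybrid luciferase reporter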
Chain of Photoreceptor-specific nuclear receptor (Q9Y5X4 whole entry, the tested form may be a part): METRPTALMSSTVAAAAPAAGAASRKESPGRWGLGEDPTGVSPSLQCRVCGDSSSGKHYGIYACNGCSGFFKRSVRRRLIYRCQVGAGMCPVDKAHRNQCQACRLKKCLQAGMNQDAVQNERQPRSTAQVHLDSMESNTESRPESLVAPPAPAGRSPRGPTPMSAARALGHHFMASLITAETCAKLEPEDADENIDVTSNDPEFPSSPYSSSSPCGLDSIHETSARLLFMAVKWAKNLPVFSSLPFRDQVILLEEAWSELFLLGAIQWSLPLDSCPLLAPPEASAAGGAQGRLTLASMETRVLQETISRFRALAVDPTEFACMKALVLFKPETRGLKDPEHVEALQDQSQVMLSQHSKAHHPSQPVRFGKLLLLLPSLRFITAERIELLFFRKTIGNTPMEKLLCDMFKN

[8] = molecular target: Dual specificity tyrosine-phosphorylation-regulated kinase 1A (Rattus norvegicus, UniProt Q63470); assay type: biochemical, Homo sapiens
[9] = molecular target: T2, Sentrin-specific protease 8 (Homo sapiens, UniProt Q96LD8); assay type: functional
T2 sequence (Q96LD8 whole entry): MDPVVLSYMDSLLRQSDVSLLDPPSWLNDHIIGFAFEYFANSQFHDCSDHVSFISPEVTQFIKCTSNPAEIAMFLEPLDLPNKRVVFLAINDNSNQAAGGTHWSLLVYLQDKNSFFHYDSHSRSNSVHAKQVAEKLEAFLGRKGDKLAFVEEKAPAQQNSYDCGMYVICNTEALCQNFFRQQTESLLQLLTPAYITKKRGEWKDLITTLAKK

[10] = molecular target: T3, Caspase-3 (Homo sapiens, UniProt P42574); assay type: functional;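 also: Dose-response selectivity test against caspase-3 for candidate inhibitors of sentrin-specific proteases (SENPs)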
T3 sequence (P42574 whole entry): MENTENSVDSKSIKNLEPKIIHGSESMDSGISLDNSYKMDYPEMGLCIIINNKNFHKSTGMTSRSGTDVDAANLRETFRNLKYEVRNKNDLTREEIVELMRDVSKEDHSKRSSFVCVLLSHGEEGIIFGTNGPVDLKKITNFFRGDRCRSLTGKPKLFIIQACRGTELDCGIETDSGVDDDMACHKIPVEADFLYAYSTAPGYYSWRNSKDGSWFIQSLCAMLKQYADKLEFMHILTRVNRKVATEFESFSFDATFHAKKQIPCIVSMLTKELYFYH

[11] = molecular target: T4, Sentrin-specific protease 6 (Homo sapiens, UniProt Q9GZR1); assay type: functional;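 also: Luminescence-based dose-response confirmatory assay of SENP6 inhibition, following up an ultra-high-throughput screen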
T4 sequence (Q9GZR1 whole entry): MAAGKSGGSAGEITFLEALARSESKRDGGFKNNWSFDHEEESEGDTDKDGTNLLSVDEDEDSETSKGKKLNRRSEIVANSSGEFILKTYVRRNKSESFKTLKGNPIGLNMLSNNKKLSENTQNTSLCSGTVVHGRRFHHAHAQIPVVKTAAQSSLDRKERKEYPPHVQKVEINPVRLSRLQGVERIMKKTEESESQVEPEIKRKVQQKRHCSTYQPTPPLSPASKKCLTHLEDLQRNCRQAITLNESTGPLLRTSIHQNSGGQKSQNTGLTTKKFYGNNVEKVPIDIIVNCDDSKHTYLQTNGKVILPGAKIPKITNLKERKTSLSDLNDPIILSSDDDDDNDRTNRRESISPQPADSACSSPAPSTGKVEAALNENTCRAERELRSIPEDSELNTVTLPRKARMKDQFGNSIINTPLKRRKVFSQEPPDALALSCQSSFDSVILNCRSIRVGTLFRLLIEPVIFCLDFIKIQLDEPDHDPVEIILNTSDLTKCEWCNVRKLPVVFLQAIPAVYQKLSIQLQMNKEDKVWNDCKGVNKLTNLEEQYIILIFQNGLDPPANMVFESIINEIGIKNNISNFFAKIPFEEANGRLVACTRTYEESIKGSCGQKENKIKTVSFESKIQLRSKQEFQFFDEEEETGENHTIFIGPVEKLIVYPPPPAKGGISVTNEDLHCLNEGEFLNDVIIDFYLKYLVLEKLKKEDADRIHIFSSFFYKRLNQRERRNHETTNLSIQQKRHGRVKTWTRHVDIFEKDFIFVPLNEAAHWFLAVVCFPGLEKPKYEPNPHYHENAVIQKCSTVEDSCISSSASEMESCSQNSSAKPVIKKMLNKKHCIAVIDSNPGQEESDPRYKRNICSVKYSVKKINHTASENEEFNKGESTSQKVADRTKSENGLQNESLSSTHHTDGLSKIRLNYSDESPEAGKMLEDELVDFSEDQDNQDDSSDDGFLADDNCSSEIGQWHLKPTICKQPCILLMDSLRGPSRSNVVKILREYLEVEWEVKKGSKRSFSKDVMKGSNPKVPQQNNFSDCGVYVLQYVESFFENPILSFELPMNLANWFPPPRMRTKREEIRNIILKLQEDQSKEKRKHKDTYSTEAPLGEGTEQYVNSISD

[12] = cells; assay type: functional
[13] = molecular target: T5, Sentrin-specific protease 7 (Homo sapiens, UniProt Q9BQF6); assay type: functional;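 also: Luminescence-based dose-response confirmation of ultra-high-throughput screening hits, measuring inhibition of SENP7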
T5 sequence (Q9BQF6 whole entry): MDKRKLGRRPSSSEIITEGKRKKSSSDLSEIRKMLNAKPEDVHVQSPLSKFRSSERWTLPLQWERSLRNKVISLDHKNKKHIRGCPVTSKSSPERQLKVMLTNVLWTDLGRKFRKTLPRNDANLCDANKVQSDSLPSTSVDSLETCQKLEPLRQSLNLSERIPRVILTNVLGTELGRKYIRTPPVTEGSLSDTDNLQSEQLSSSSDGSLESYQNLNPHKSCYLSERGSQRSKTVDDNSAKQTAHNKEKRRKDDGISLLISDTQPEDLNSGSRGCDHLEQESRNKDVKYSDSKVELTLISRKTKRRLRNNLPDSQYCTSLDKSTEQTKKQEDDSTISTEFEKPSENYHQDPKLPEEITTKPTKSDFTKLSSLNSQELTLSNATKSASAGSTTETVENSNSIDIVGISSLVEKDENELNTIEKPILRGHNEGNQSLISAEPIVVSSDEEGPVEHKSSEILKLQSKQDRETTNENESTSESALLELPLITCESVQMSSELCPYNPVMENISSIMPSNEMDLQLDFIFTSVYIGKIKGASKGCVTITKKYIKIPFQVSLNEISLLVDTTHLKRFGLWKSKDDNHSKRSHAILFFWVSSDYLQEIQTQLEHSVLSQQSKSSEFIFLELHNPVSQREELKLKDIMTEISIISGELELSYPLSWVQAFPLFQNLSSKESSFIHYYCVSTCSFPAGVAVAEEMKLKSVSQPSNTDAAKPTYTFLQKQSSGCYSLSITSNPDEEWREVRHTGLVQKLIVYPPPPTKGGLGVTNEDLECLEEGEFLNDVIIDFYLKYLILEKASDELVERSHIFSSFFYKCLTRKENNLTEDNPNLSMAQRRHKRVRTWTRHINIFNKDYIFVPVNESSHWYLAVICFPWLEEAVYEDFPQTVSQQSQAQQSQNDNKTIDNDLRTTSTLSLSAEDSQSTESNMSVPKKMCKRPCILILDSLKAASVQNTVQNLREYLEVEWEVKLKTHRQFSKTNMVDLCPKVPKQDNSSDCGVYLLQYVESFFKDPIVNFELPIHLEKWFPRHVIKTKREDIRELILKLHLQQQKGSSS

[14] = molecular target: T2, Sentrin-specific protease 8; assay type: functional; remark: listed apart in the source
[15] = molecular target: T2, Sentrin-specific protease 8; assay type: functional; remark: listed apart in the source
[16] = molecular target: Beta-galactosidase (Escherichia coli, UniProt Q8VNN2); assay: Dose response counterscreen for EBI2 assay utilizing the enzyme, b-galactosidase.; assay type: functional
Chain of Beta-galactosidase (Q8VNN2 whole entry): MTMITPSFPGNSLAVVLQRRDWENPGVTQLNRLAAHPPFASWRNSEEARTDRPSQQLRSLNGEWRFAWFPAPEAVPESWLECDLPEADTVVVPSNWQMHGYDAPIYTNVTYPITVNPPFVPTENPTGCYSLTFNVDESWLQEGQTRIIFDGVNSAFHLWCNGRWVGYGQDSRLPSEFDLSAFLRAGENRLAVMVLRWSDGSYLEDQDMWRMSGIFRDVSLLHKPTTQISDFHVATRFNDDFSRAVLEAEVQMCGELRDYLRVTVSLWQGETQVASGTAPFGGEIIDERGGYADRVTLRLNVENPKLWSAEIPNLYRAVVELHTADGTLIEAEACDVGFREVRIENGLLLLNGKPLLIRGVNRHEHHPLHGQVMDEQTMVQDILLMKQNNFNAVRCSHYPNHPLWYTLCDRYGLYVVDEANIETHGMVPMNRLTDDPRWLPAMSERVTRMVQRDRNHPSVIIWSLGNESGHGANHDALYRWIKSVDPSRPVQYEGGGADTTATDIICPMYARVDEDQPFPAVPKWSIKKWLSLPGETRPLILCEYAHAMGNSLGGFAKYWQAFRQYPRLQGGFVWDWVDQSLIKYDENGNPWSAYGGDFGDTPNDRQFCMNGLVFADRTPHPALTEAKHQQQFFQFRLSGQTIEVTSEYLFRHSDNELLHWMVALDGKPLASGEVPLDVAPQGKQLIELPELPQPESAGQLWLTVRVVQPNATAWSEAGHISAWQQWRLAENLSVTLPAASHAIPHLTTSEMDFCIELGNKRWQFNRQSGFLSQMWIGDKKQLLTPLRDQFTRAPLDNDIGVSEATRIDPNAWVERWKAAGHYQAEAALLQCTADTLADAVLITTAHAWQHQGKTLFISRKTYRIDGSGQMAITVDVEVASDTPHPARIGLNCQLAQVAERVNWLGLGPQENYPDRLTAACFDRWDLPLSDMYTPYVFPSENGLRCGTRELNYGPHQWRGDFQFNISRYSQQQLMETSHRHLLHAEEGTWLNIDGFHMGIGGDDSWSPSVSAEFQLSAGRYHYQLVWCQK

[17] = test system: INS1; assay: INS-1E survival protection against cytokine death – cell-based, luminescence, retest, dose response (AID 449756); assay type: functional; details: Rattus norvegicus;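 also: cell death triggered by IL-1 beta plus TNF-alpha plus IFN-gamma mixture; protective hits raise ATP signal compared with cytokine alone wells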
[18] = activation of miR-122 Renilla sensor silencing – cell-based, Huh7 psiCHECK-miR122, Renilla luciferase, cherry-picked, dose response (AID 651956); assay type: functional;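 also: huh7 hepatoma cells stably carrying a psiCHECK-2 miR-122 sensor plasmid; renilla luciferase signal reporting endogenous miR-122 activity after 48 h compound exposure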
[19] = molecular target: FAD-linked sulfhydryl oxidase ALR (Homo sapiens, UniProt P55789); assay: ALR-catalysed DTT oxidation blockers – biochemical, H2O2 detection, luminescence, cherry-pick, dose response (AID 493248)
Chain of FAD-linked sulfhydryl oxidase ALR (P55789 whole entry): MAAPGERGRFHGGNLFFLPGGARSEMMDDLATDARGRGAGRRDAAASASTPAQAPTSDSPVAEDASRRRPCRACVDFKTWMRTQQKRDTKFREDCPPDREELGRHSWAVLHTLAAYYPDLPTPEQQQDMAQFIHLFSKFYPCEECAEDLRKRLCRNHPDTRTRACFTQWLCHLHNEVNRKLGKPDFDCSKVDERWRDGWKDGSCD

[20] = molecular target: Mu-type opioid receptor (Homo sapiens, UniProt P35372); assay type: functional, cell-based;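 also: U2OS cells with beta-arrestin recruitment to OPRM1 by beta-gal complementation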
Chain of Mu-type opioid receptor (P35372 whole entry): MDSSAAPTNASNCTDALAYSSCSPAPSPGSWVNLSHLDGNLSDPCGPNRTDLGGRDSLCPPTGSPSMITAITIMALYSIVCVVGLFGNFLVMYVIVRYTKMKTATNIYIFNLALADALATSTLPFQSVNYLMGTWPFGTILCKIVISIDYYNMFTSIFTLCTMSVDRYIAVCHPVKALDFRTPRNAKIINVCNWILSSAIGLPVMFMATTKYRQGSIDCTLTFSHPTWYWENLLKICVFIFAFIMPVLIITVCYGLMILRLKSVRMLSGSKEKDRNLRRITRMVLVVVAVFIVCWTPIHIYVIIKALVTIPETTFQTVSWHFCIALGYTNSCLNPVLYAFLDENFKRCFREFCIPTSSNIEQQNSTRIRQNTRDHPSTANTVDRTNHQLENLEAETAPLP

Cc1csc(NC(=O)Cc2nn(C)c(=O)c3ccccc23)n1
AC50 [1]: 46.5 µM (active) | AC50 [2]: 5.18 µM (active) | AC50 [3]: 6.82 µM (active)

O=C(Nc1ccc(C(=O)N2CCCCC2)cc1)C1=CSCCO1
IC50 [4]: > 67.6 µM (inactive) | IC50 [5]: > 67.6 µM (inactive)

COc1ccc(C(=O)/C=C/C(=O)N(CC(=O)NCCC(C)C)Cc2cccs2)c(O)c1
AC50 [1]: 51.7 µM (active) | AC50 [2]: 13.2 µM (active) | AC50 [3]: 3.49 µM (active)

CN(Cc1ccccc1)C(=O)COC(=O)c1ccccc1Nc1ccccc1
AC50 [6]: 8.73 µM (active)

CCNc1nc2c(c(=O)n(C)c(=O)n2C)n1Cc1ccc(Cl)cc1
IC50 [7]: 14.7 µM (inactive)

CCN(C(=O)c1cc2c(=O)n3ccccc3nc2n1C)C1CCCCC1
IC50 [4]: > 67.5 µM (inactive) | IC50 [5]: > 67.5 µM (inactive)

CC1Cc2cc(/C=C3/SC(=S)NC3=O)ccc2O1 (stereo not given)
AC50 [8]: 0.308 µM (active) | IC50 [9]: 39.1 µM (active) | IC50 [10]: 16.9 µM (active) | IC50 [11]: 8.72 µM (active) | IC50 [12]: 39.3 µM (active) | IC50 [13]: 9.86 µM (active)

CCN1CCC2(CC1)N=C(c1ccc(F)cc1)C(=S)N2C(=O)c1ccc(C)cc1
IC50 [14]: > 100 µM (inactive) | IC50 [15]: 15.3 µM (active)

CCOC(=O)N1CCN(C(=O)/C=C/c2ccc(C(C)(C)C)cc2)CC1
IC50 [16]: > 80 µM (inactive)

O=C(Nc1ccc(N2CCN(C(=O)c3ccccc3)CC2)cc1)c1ccc2c(c1)OCO2
IC50 [7]: 13.3 µM (inactive)

COCCC1CCCCN1C(=O)c1cc(COc2ccc(-n3cncn3)cc2)on1 (stereo not given)
AC50 [17]: 3.08 µM (active) | AC50 [1]: 50.5 µM (active) | AC50 [2]: 1.22 µM (active) | AC50 [3]: 0.57 µM (active)

CSc1ccc(/C=C/C(=O)c2ccc(NC(=O)Cc3ccccc3)cc2)cc1
IC50 [16]: > 80 µM (inactive)

O=C(Nc1cccc(Cl)c1)c1ccc(OC(=S)N2CCOCC2)cc1
IC50 [9]: > 100 µM (inactive) | IC50 [10]: 31.4 µM (active) | IC50 [11]: > 100 µM (inactive) | IC50 [13]: 2.85 µM (active)

COc1cc(-c2nc3cc(C)ccn3c2NC2CCCCC2)ccc1-c1ccc(C(C)=O)cc1
IC50 [16]: 118 µM (inactive)

Cc1cc(C)cc(NC(=O)CCc2nc3sc4c(c3c(=O)[nH]2)CCCC4)c1
IC50 [7]: 0.277 µM (active)

Cc1nc(C)c(-c2csc(Nc3ncccc3C)n2)s1
IC50 [9]: > 100 µM (inactive) | IC50 [10]: 16.4 µM (active) | IC50 [11]: 5.89 µM (active) | IC50 [13]: 3.96 µM (active)

CCC(CO)Oc1cc(NCc2ccncc2)c2ncn(C(C)C)c2c1 (stereo not given)
IC50 [14]: 37.6 µM (active) | IC50 [15]: 24.5 µM (active)

COc1ccc(/C(C)=N/Nc2nccnc2Cl)cc1
IC50 [4]: > 67.6 µM (inactive) | IC50 [5]: > 67.6 µM (inactive)

O=C(N/N=C/c1ccc([N+](=O)[O-])o1)c1ccncc1
IC50 [14]: 39.9 µM (active) | IC50 [15]: 35.3 µM (active)

C[C@@H]1CN([C@H](C)CO)C(=O)c2cc(NC(=O)Nc3ccc(C(F)(F)F)cc3)ccc2O[C@@H]1CN(C)CC1CCCCC1
AC50 [18]: 32.8 µM (active) | AC50 [6]: 10.2 µM (active)

O=NN(CC(=O)NNc1ccccc1)CC(=O)NNc1ccccc1
IC50 [7]: 18.3 µM (inactive)

Cc1ccc(/C=N/Nc2ccc3ccccc3n2)o1
IC50 [4]: > 67.5 µM (inactive) | IC50 [5]: > 67.5 µM (inactive) | AC50 [19]: 5.31 µM (active)

CCCN1C[C@H](CSC)C[C@@H]2c3cccc4[nH]cc(c34)C[C@H]21 [PERGOLIDE MESYLATE]
EC50 [20]: 92.5 µM (inactive)
